Assay results published in patent US20240342255A1, “TARGETING 3-KETODIHYDROSPHINGOSINE REDUCTASE (KDSR) IN CANCER” (UNIVERSITY OF MASSACHUSETTS, priority 2021, published 2024).
Values joined by “and” are separate entries in the source; they are usually repeats but may differ in a detail not shown here. Equal values may be shown once. Residues, ends and D or L forms follow the SMILES beside them. *: point of attachment. Cbz = O=C(OCc1ccccc1)*

What was measured:
Format in all cases: cell-based
DLD1 cells [1] = assay: Cell viability (CellTiter-Glo) with exogenous 3KDS treatment
Protocol: Cell viability was measured using CellTiter-Glo 2.0 Cell Viability Assay (Promega), which measures the number of viable (metabolically active) cells in culture by quantitating the amount of ATP present. CellTiter-Glo (CTG) Reagent and 96 well plates containing the cells were equilibrated to room temperature, 20 ul of CTG reagent was added to each well of cells and incubated for 20 minutes protected from light. Luminescence was read with an integration time of 1.0 sec using the Beckman Coulter DTX880 Multimode Detector plate reader.
For determination of relative viability as depicted in figures, CTG was measured at 2 different timepoints. The first viability measurement was taken as the baseline on the day after cells were plated to 96 wells, and the second viability measurement was taken at a later timepoint (1-5 days after baseline) to calculate the fold change viable cells over time for each condition (Day X CTG/Baseline CTG). These fold change values were then divided by the fold change of the control condition (=1.0) to determine the relative viability.

DLD1 cells [2] = assay: Cell morphology by light microscope / calnexin immunofluorescence
DLD1 cells [3] = assay: Protein aggresome staining; details: 3 μM MG132, 18 hr
Protocol: Cells were grown on coverslips coated with PDL/laminin and were stained for protein aggresomes at 9 days post lentiviral infection for CTRL or KDSR KO or 18 hr post treatment with vehicle or 3 uM MG132. Protein aggresomes were detected using the PROTOEOSTAT Aggresome detection kit (Enzo Life Sciences), which contains a dye that fluoresces upon intercalation into the cross-beta spine of protein structures found in misfolded and aggregated proteins. For aggresome staining, cells were fixed in 4% PFA, washed in PBS, and permeabilized in 0.5% TXB on ice with gentle shaking for 30 minutes. Cells were washed in PBS following permeabilization and were subsequently incubated with the Aggresome Detection Reagent diluted 1:2000 in PBS for 45 min at room temperature protected from light. Cells were washed with PBS after staining and coverslips were mounted to microscope slides using ProLong Gold Antifade Mountant containing DAPI. Cells were imaged using the Zeiss LSM700 confocal microscope and Zen Black 2012 Software.

DLD1 cells [4] = assay: Western blot of K48 ubiquitinated proteins; details: DLD1 cells treated with MG132 (FIG. 4C)
Protocol: (§1) Cells were washed in cold PBS and resuspended in 1% Triton-X 100 containing protease inhibitor cocktail and lysed on ice. Following cell lysis, samples were centrifuged at 13,000 rpm at 4° C. for 10 min to remove cell debris and the supernatant (cell lysate) was collected. The protein concentration of each lysate was measured by Bradford Assay. Western blot samples were prepared by diluting lysates in 6× Laemmli Buffer and boiled at 95° C. for 10 min. Samples were loaded to polyacrylamide gels at equal protein concentrations and analyzed by standard SDS-PAGE western blotting techniques. Protein levels were detected using HRP-conjugated secondary antibodies and chemiluminescent substrates (Pierce ECL or Pico PLUS).

DLD1 cells [5] = assay: LC-MS quantification of 3KDS in cultured cells
Protocol: The levels of 3-ketodihydrosphingosine (3KDS) were quantified in both cells grown in culture and in tumor tissues from the in vivo xenograft experiment. Lipid analysis was performed at the UCSD Lipidomics Core^17. For the in vitro experiment, DLD1 cells were infected for lentiviral transduction of pLCv2 with nontargeting CTRL guide, KDSR g1, or SPTLC1 g1. Cells were selected with puromycin for 5 days and were treated with the appropriate conditions (vehicle, 50 uM palmitate, 15 uM myriocin) at 6 days post infection. Cells were trypsinized, quickly washed 2× in cold PBS, centrifuged, and the cell pellet was collected for analysis at 8 days post lentiviral infection and 48 hr post treatment. 3KDS quantification was normalized to the protein content of n=3 independently prepared cell extracts for each condition.
Samples were extracted with DCM/MeOH (1:1) and 1× internal standards were added to extracts. Samples were vortexed, sonicated for 10 minutes, and then centrifuged at 5000 rpm for 5 min. Samples were re-extracted, combined, and dried down in a speed vac. Samples were run on the ACQUITY UPLC System (Waters) on a Phenomenex Kinetex C18 column. Mass spectrometry analysis was performed on the Sciex 6500 Qtrap mass spectrometer and data were analyzed using Sciex Analyst and Multiquant software packages.

DLD1 cells [6] = assay: Lipid free viability assay; details: 15 μM myriocin, 72 hr, 10% charcoal stripped serum (FIG. 1F)
Protocol: DLD1 cells were grown in media with 10% FBS (normal growth condition) or 10% charcoal stripped serum (lipid free condition) for 1 week prior to lentiviral infection for CRISPR-mediated gene KO. Cells were infected in 6 wells, selected with puromycin, and plated to 96 wells as described previously in the appropriate serum conditions throughout the entirety of the experiment. Baseline CTG was measured at day 7 post infection, and subsequently at day 10 post infection. For the myriocin treated condition, CTRL cells were treated with 15 μM myriocin at day 7 post infection and were treated for 72 hr at the time of day 10 CTG measurement. Viability was calculated over the course of 3 days of growth and measured relative to CTRL untreated condition.

DLD1 cells [7] = assay: Myriocin rescue and palmitate synergy viability experiments in KDSR KO cells
Protocol: Cells were plated to 6 wells and infected with lentiviruses containing pLCv2 CTRL or guides targeting KDSR. Cells were selected with puromycin for 4-5 days and were then counted and plated to 96 well plates at 6 days post lentiviral infection at 600-800 cells/well in technical triplicate or quadruplicate. Baseline cell viability was read at 7 days post infection, at which time the other 96 well plates (to be read at later timepoints) were treated with DMSO vehicle or 2 uM myriocin for rescue experiments or with EtOH vehicle or 50 uM palmitate for synergy experiments. For myriocin rescue experiments, subsequent CTG readings were taken at days 3 and 5 post treatment (10 and 12 days post infection) to determine the effect of SPT inhibition on KDSR KO toxicity. For synergy experiments, subsequent CTG readings were taken at 24, 48, and 72 hr post treatment (8, 9, and 10 days post infection) to measure the effect of KDSR KO and palmitate treatment on cell viability relative to CTRL vehicle treated cells.
To determine whether KDSR KO and 50 uM palmitate have a synergistic toxic effect on cells (FIG. 2C), we used the Bliss Independence Model. […]

DLD1 cells [8] = assay: LC-MS quantification of sphingomyelin and ceramide after CRISPR-Cas9 gene KO; details: biological replicates (1)-(3); for Total (RATIO), Cer + SM by LC-MS / Cer (RATIO), total ceramide level by LC-MS / SM (RATIO), total sphingomyelin level by LC-MS: 8 days post lentiviral infection; for Cer (RATIO), total ceramide level by LC-MS / SM (RATIO), total sphingomyelin level by LC-MS: normalized intensities relative to internal standards per mg protein
Protocol: DLD1 cells were plated to 6 wells and infected for lentiviral transduction of lentiCRISPR v2 with nontargeting CTRL guide, KDSR g1, or SPTLC1 g1, with each condition infected in biological triplicate. Cells were selected with puromycin for 5 days and collected for analysis at 8 days post lentiviral infection. Cells were trypsinized, quickly washed 2× in cold PBS, centrifuged, and the cell pellet was collected for analysis. Lipid analysis was performed at the UCSD Lipidomics Core^17. For quantification of sphingomyelin and ceramide species, samples were extracted via Butanol-Methanol (BUME) with 100 ul/sample. The lipid (top) layer was collected, solvent was removed, and samples were reconstituted in 100 ul LC solvent (18:1:1, IPA/DCM/MeOH). Samples were run on Reverse Phase-Ultra Performance Liquid Chromatography (Thermo Vanquish UPLC) on the Cortecs T3 C18 column. Mass spectrometry was performed on the Thermo Q Exactive Mass Spectrometer with MS/MS data dependent acquisition scan mode and analyzed with Lipid Data Analyzer (LDA) and LipidSearch software. All data are expressed as normalized intensities relative to exactly measured internal standards and constitute relative abundances per mg protein. For the identification of each lipid molecular species including its exact fatty acid composition, we used MS/MS footprinting techniques. Details of methods and nomenclature used were adapted from a previous study^18.
Total sphingomyelin levels under each condition were calculated as the sum of 121 analytes and total ceramide levels as the sum of 81 analytes. The ratio of total sphingomyelin and ceramide levels in KDSR and SPTLC1 KO cells were calculated relative to CTRL cells as shown in FIG. 1e. The select species of sphingomyelins and ceramides shown in Extended Data FIG. 2 represent the top 10 most abundant species that were detected in all 3 biological replicate samples of the CTRL condition to show the effect of SPTLC1 and KDSR KO on the most abundant sphingolipids compared to CTRL.

KDSR = assay: Western blot of KDSR protein after CRISPR/Cas9 targeting in non-cancerous cell lines; details: seven non-cancerous cell lines (THLE3, CCD841CON, CCD18Lu, HIEC6, HS67, GM05565, GM02037), FIGS. 10A-10G
Protocol: as §1
Western blots were performed to confirm that KDSR expression was reduced or eliminated in the cell line after CRISPR/Cas9 KO of KDSR. […] For each experiment, actin served as a loading control.

CCCCCCCCCCCCCCCC(=O)C(N)CO (stereo not drawn) [3KDS, 3-ketodihydrosphingosine]
effect of exogenous 3KDS on cell viability (DLD1 cells [1]; DLD1 cells, various doses, 24 hr (FIG. 2B)): cell toxicity | toxicity of 3KDS in KDSR KO cells (DLD1 cells [1]; KDSR g1 and g2 KO DLD1 cells, 5 μM 3KDS, 24 hr (FIG. 6)): even more toxic | cell morphology after 3KDS treatment (DLD1 cells [2]; wildtype DLD1 cells, 10 μM 3KDS, 24 hr (FIG. 2G)): aberrant ‘vacuolar’ morphology

CC(C)C[C@@H](C=O)NC(=O)[C@H](CC(C)C)NC(=O)[C@H](CC(C)C)NC(=O)OCc1ccccc1 [MG132, MG-132] (Cbz-Leu-Leu-Leu-aldehyde)
protein aggresome formation (DLD1 cells [3]): induced formation of protein aggresomes | morphological phenotype / ER structure (DLD1 cells [2]; DLD1 cells, 3 μM MG132, 18 hr, light microscope and calnexin IF (FIG. 4D)): strongly resembled the aberrant enlarged ER structures | levels of K48 ubiquitinated proteins (DLD1 cells [4]): accumulation of K48 ubiquitinated proteins

CCCCCCC(=O)CCCCCC/C=C/C[C@@H](O)[C@H](O)[C@@](N)(CO)C(=O)O [myriocin, Myriocin]
3KDS accumulation in KDSR KO cells under SPT inhibition (DLD1 cells [5]; KDSR KO DLD1 cells, 15 μM myriocin, 48 hr (FIG. 2F)): prevented 3KDS accumulation | viability in lipid-free serum (DLD1 cells [6]): detrimental to cancer cell viability | morphology of KDSR KO cells under SPT inhibition (DLD1 cells [2]; KDSR KO DLD1 cells, 15 μM myriocin, 48 hr (FIG. 2G)): rescued the aberrant morphological phenotype | effect of myriocin on viability of KDSR KO cells (DLD1 cells [7]; 2 μM myriocin, 72 hr (FIG. 2D)): rescued against the loss of viability

CCCCCCCCCCCCCCCC(=O)O [palmitate, Palmitic Acid]
accumulation of 3KDS (DLD1 cells [5]; KDSR KO DLD1 cells treated with 50 μM palmitate, 48 hr, relative to CTRL vehicle (FIG. 2F)): 800 fold | effect of palmitate on viability of KDSR KO cells (Bliss independence) (DLD1 cells [7]; 50 μM palmitate, 48 hr (FIG. 2C)): synergized with the toxic effect of KDSR KO

KDSR g1: CRISPR-Cas9 guide RNA targeting KDSR, TGTGTGCAAACCAGAACAGG, SEQ ID NO: 4 (listed as DNA, chemistry not given here; listed as Homo sapiens)
Total (RATIO), Cer + SM by LC-MS (DLD1 cells [8]): 535.9 and 709.0 and 681.9 | Cer (RATIO), total ceramide level by LC-MS (DLD1 cells [8]): 67.9 and 101.4 and 99.2 | SM (RATIO), total sphingomyelin level by LC-MS (DLD1 cells [8]): 468.0 and 607.6 and 582.7 | Cer (Percentage of total) (DLD1 cells [8]): 12.7% and 14.3% and 14.5% | SM (Percentage of total) (DLD1 cells [8]): 87.3% and 85.7% and 85.5% | KDSR expression after CRISPR/Cas9 targeting (KDSR): eliminated or substantially reduced

KDSR g2: CRISPR-Cas9 guide RNA targeting KDSR, GGCAAACTTGGATGCAGAGT, SEQ ID NO: 5 (listed as DNA, chemistry not given here; listed as Homo sapiens)
KDSR expression after CRISPR/Cas9 targeting (KDSR): eliminated or substantially reduced

SPTLC1 g1: CRISPR-Cas9 guide RNA targeting SPTLC1, GTGCTACTCACCTTAACCCT, SEQ ID NO: 2 (expressed or natural sequence; listed as Homo sapiens)
Total (RATIO), Cer + SM by LC-MS (DLD1 cells [8]): 720.1 and 485.8 and 520.4 | Cer (RATIO), total ceramide level by LC-MS (DLD1 cells [8]): 66.2 and 36.6 and 66.9 | SM (RATIO), total sphingomyelin level by LC-MS (DLD1 cells [8]): 653.9 and 449.2 and 453.5 | Cer (Percentage of total) (DLD1 cells [8]): 9.2% and 7.5% and 12.9% | SM (Percentage of total) (DLD1 cells [8]): 90.8% and 92.5% and 87.1%
